# Legend:
# [1] = The compound was evaluated for inhibition of HIV-1 mutant […] recombinant reverse transcriptase
# [2] = Effective concentration required to inhibit HIV-1 induced cytopathicity by 50% in CEM cells
EC50 [2],SMILES,EC50 [1]
,Cc1cn([C@@H]2O[C@H](CO[Si](C)(C)C(C)(C)C)[C@@H](O[Si](C)(C)C(C)(C)C)[C@H]2O[Si](C)(C)C(C)(C)C)c(=O)n(CC(=O)O)c1=O,32 µM
,Cc1cn([C@@H]2O[C@H](CO)[C@@H](O)[C@H]2O[Si](C)(C)C(C)(C)C)c(=O)n(CC(=O)O)c1=O,20 µM
,Cc1cn([C@@H]2O[C@H](CO)[C@@H](O)[C@H]2O[Si](C)(C)C(C)(C)C)c(=O)n(CC(=O)OCc2ccccc2)c1=O,4 µM
,Cc1cn([C@@H]2O[C@H](CO[Si](C)(C)C(C)(C)C)[C@@H](O[Si](C)(C)C(C)(C)C)[C@H]2O[Si](C)(C)C(C)(C)C)c(=O)n(CC(=O)OCc2ccccc2)c1=O,> 10 µM
,Cc1cn([C@@H]2O[C@H](CO[Si](C)(C)C(C)(C)C)[C@@H](O[Si](C)(C)C(C)(C)C)[C@H]2O)c(=O)n(CC(=O)OCc2ccccc2)c1=O,> 50 µM
1.8 µM,"Cc1cn([C@@H]2O[C@H](CO[Si](C)(C)C(C)(C)C)[C@@H](O[Si](C)(C)C(C)(C)C)[C@H]2O)c(=O)n(CC(=O)O)c1=O [{3-[4-(tert-Butyl-dimethyl-silanyloxy)-5-(tert-butyl-dimethyl-silanyloxymethyl)-3-hydroxy-tetrahydro-furan-2-yl]-5-methyl-2,6-dioxo-3,6-dihydro-2H-pyrimidin-1-yl}-acetic acid]",
,Cc1cn(C2CCC(CO[Si](C)(C)C(C)(C)C)O2)c(=O)n(CC(=O)OCc2ccccc2)c1=O (stereo unspecified),> 250 µM
,Cc1cn(C2O[C@H](CO[Si](C)(C)C(C)(C)C)[C@@H](O)[C@H]2O)c(=O)n(CC(=O)O)c1=O (stereo partly specified),117 µM
,Cc1cn([C@@H]2O[C@H](CO[Si](C)(C)C(C)(C)C)[C@@H](O)[C@H]2O[Si](C)(C)C(C)(C)C)c(=O)n(CC(=O)O)c1=O,4.5 µM
,Cc1cn([C@H]2C[C@H](O[Si](C)(C)C(C)(C)C)[C@@H](CO[Si](C)(C)C(C)(C)C)O2)c(=O)n(CC(=O)O)c1=O,5 µM
,"Cc1cn(C2OC(CO[Si](C)(C)C(C)(C)C)CC2O[Si](C)(C)C(C)(C)C)c(=O)n(CC(=O)O)c1=O (stereo unspecified) [{3-[3-(tert-Butyl-dimethyl-silanyloxy)-5-(tert-butyl-dimethyl-silanyloxymethyl)-tetrahydro-furan-2-yl]-5-methyl-2,6-dioxo-3,6-dihydro-2H-pyrimidin-1-yl}-acetic acid]",4.5 µM
